The record followed here is patent publication US12649755B2, “Plasmin inhibitor, preparation method therefor and application thereof” (SCINNOHUB PHARMACEUTICAL CO., LTD, priority 2020, dated 2026).

Where two headings read alike, the source gives them in different places.

The subject of data set [1] is plasma clots (human plasma, tPA-induced lysis). As to the kind of experiment: Plasma clot lysis assay. The class given is biochemical. From the text:
To determine the inhibitory effect of the compounds of the invention on the degradation of plasma clots.
3. […] The time corresponding to the median of the absorption value in the descending section-the time corresponding to the median of the absorption value in the ascending section is the plasma clot degradation time (Clot lysis time).
Taking the log value of the compound concentration as the X-axis, and the percentage inhibition rate as the Y-axis, and dose-response curves were fitted with the software GraphPad Prism 5 by using log (inhibitor) vs. Response-Variable slope to derive IC50 values of compounds inhibiting the degradation of plasma clots. Y=min+(max−min)/(1+10^((LogIC50−X)×Hillslope). Formula: […]

The nature of data set [2]: Rat PK assay, intravenous administration. The data set is classed as in vivo. The following applies: male, Sprague-Dawley, plasma, SD rats, 1 mg/kg single dose. As for the experimental part: The pharmacokinetic profile of the compounds of the invention in rats was studied by measuring the plasma drug concentration after intravenous administration.
Male Sprague-Dawley rats of SPF grade, 3 rats each group, were obtained from: Shanghai Sippe-Bk Lab Animal Co., Ltd.
The compound was weighed and dissolved in normal saline to prepare a 0.2 mg/mL solution for intravenous administration.
The day before the experiment, the rats were fasted overnight and fed 4 hours after administration.
On the day of the experiment, the rats were administered according to the scheme in the table below. At each time point after administration, approximately 200 μL of blood was collected from the jugular vein and placed in heparin sodium anticoagulation tubes. Blood samples were placed on ice after collection, and the plasma was separated by centrifugation within 1 hour (centrifugation conditions: 6800 g, 6 minutes, 2-8° C.). The separated plasma was stored in a refrigerator at −80° C. for biological sample analysis.
The compound concentration in rat plasma was determined by the following method: • Instruments and equipment: LC-MS/MS-19 (TQ5500, AB SCIEX, USA). • Internal standard: warfarin. • Chromatographic column: ACQUITY UPLC BEH C18, model 1.7 um 2.1*50 mm, purchased from Shenzhen Novah Chemical Technology Co., Ltd.; • Flow rate: 0.60 ml/min. • Column temperature: 40° C. • Mobile phase A: 0.1% formic acid in water. • Mobile phase B: 0.1% formic acid in acetonitrile.
Take 30 μL of the plasma sample prepared from item “3”, add 300 μL MeOH containing 100 ng/ml of internal standard to precipitate protein. The mixture was vortexed for 1 minute and centrifuged at 18000 g for 7 minutes. The supernatant was transferred to a 96-well plate. Inject 4 μL of supernatant into LC-MS/MS for analysis.
The concentration of the compound in rat plasma was determined by the above-mentioned LC-MS/MS analysis method, and pharmacokinetic parameters were calculated by using Phoenix WinNonlin7.0 software according to blood concentration data of different time points.

Data set [3] has as its system human whole blood under hyperfibrinolytic state induced by rtPA. As to the kind of experiment: Human whole blood thromboelastography (TEG) assay. The data set is classed as biochemical. Here is the method:
The antifibrinolytic effect of the compounds of the invention in the human whole blood under hyperfibrinolytic state induced by rtPA (recombinant tissue […]) was determined using the Thromboelastogram (TEG).
• Source of human blood: All human blood used in the experiments was provided by healthy volunteers. 3. Experimental Procedure • (1) Preparation of test substance solution: Accurately weigh the test substance, and use normal saline to prepare the test substance to the following concentrations (100×test concentration): • Tranexamic acid (μM): 3000, 1000, 300, 100, 30, 10, 0; • Example 6 (μM): 1000, 300, 100, 30, 10, 3, 0. • (2) Preparation of rt-PA (alteplase for injection): the active dry powder of rtPA was formulated to 25 μg/mL using water for injection in the rtPA package. • (3) Reaction system:
Mix 392 μL of sodium citrate anticoagulated whole blood with 4 μL rtPA and 4 μL test substance, reacted at room temperature, and TEG curve was detected for 2 hours to obtain the time parameter of CLT (clot lysis time). • (4) Result calculations
Taking the log value of the compound concentration as the X-axis and the CLT value as the Y-axis, and dose-response curves were fitted using log (inhibitor) vs. Response-Variable slope (GraphPad Prism 8 software).
The concentration of compound corresponding to doubling the CLT time was calculated.

[4] abbreviates: relative inhibition of plasma clot lysis vs tranexamic acid in vitro, plasma clot lysis.

Broadly, the AUC is the area under the concentration-time curve, a measure of exposure. As a reminder, the Cmax is the maximum level reached in the sampled fluid or tissue. By clearance is commonly meant the rate of elimination divided by the concentration. For orientation: half-life means the time needed for the level to fall by half in the phase considered. A high value points to slow decline. For `Cl.O=P(O)(O)c1ccc2c(n1)CC(COCCCO)NC2` (stereo not drawn) [Example 22], the “IC50 ratio (IC50 Examples/IC50 Tranexamic acid)” value (“IC50 ratio” for short) in data set [1] (setting [4]) came to 0.14. In data set [2], this molecule had an AUC of 5530 ng·h/mL, a peak concentration (Cmax) of 6790 ng/mL, a clearance of 2.98 mL/min/kg and a half-life of 3.58 h.
In the case of `COc1ccc(CCC2Cc3nc(P(=O)(O)O)ccc3CN2)cc1.Cl` (stereo not drawn) [Example 16], the “IC50 ratio” value in data set [1] (setting [4]) is listed as 0.07.
Regarding `Cl.O=P(O)(c1ccccc1)c1ccc2c(n1)CCNC2` [Example 17], the “IC50 ratio” value in data set [1] (setting [4]) stood at 0.2. In data set [2], this molecule gave an AUC of 2820 ng·h/mL, a Cmax of 4090 ng/mL, a clearance of 5.83 mL/min/kg and a half-life of 1.53 h.
As for `CCP(=O)(O)c1ccc2c(n1)CCNC2.Cl` [Example 3, Ethyl (5,6,7,8-tetrahydro-1,6-naphthyridin-2-yl)-phosphinic Acid Hydrochloride], the “IC50 ratio” value in data set [1] was determined as 0.86.
With `CC(C)C1Cc2nc(P(=O)(O)O)ccc2CN1.Cl` (stereo not drawn) [Example 24], in data set [1] (setting [4]), the “IC50 ratio” value was 0.14.
The same measure, in the same setting: then `Cl.O=P(O)(O)c1ccc2c(n1)C(N1CCS(=O)(=O)CC1)CNC2` (stereo not drawn) [Example 21], with 0.25.
As usually defined, the IC50 is the concentration that gives 50% inhibition. On to `Cl.O=P(O)(O)c1ccc2c(n1)CCNC2` [Example 1, (5,6,7,8-tetrahydro-1,6-naphthyridin-2-yl)phosphonic Acid Hydrochloride], for which the IC50 in data set [1] (human plasma, tPA, clot lysis time by absorbance at 405 nm, read-out: IC50 value for inhibition of plasma clot lysis) was determined as 900 nM. The “IC50 ratio” value in data set [1] (setting [4]) is recorded as 0.19. In data set [2], this molecule gave an AUC of 14000 ng·h/mL, a Cmax of 10200 ng/mL, a clearance of 1.14 mL/min/kg and a half-life of 1.96 h.
Regarding `CC(C)CC1Cc2nc(P(=O)(O)O)ccc2CN1.Cl` (stereo not drawn) [Example 11, (7-isobutyl-5,6,7,8-tetrahydro-1,6-naphthyridin-2-yl) Phosphonic Acid Hydrochloride], in data set [1] (setting [4]), the “IC50 ratio” value is given as 0.08.
The same measure, in the same setting: then `Cl.O=P(O)(O)c1ccc2c(n1)CC1(CCC1)NC2` [Example 32], with 0.7; and `Cl.O=P(O)(O)c1ccc2c(n1)CC(CCC1CCCCC1)NC2` (stereo not drawn) [Example 29], with 0.09; and `Cl.O=P(O)(O)c1ccc2c(n1)C(OCCO)CNC2` (stereo not drawn) [Example 9, (8-(2-hydroxyethoxy)-5,6,7,8-tetrahydro-1,6-naphthyridin-2-yl) Phosphonic Acid Hydrochloride], with 0.25.
In the case of `CC(=O)OCOP(=O)(O)c1ccc2c(n1)CCNC2` [Example 18], in data set [1] (setting [4]), the “IC50 ratio” value was found to be 0.23.
For `Cl.O=P(O)(O)c1ccc2c(n1)CC(CCCc1ccccc1)NC2` (stereo not drawn) [Example 25], in data set [1] (setting [4]), the “IC50 ratio” value was 0.21.
Same read-out and setting: then `Cl.O=P(O)(O)c1ccc2c(n1)CC1(CCCCC1)NC2` [Example 34], with 0.29; and `CCOC(=O)OCOP(=O)(O)c1ccc2c(n1)CCNC2` [Example 35], with 0.18.
The same measure, in the same setting: then `Cl.O=P(O)(O)c1ccc2c(n1)C(N1CCSCC1)CNC2` (stereo not drawn) [Example 20], with 0.21.
Same read-out and setting: then `Cl.O=P(O)(O)c1ccc2c(n1)C(N1CCOCC1)CNC2` (stereo not drawn) [Example 7, (8-morpholino-5,6,7,8-tetrahydro-1,6-naphthyridin-2-yl) Phosphonic Acid Hydrochloride], with 0.3; and `Cl.O=P(O)(O)c1ccc2c(n1)CC1(CCCC1)NC2` [Example 33], with 0.22; and `Cl.O=P(O)(CCc1ccccc1)c1ccc2c(n1)CCNC2` [Example 4, Phenylethyl (5,6,7,8-tetrahydro-1,6-naphthyridin-2-yl) Phosphinic Acid Hydrochloride], with 0.36.
In the case of `Cl.O=P(O)(O)c1nc2c(cc1F)CNCC2` [Example 2, (3-fluoro-5,6,7,8-tetrahydro-1,6-naphthyridin-2-yl)phosphonic Acid Hydrochloride], in data set [1] (setting [4]), the “IC50 ratio” value came out at 0.11. In data set [2], this molecule gave an AUC of 30100 ng·h/mL, a Cmax of 10100 ng/mL, a clearance of 0.555 mL/min/kg and a half-life of 4.15 h.
Consider `CCOP(=O)(O)c1ccc2c(n1)CCNC2.Cl` [Example 15], for which the “IC50 ratio” value in data set [1] (setting [4]) was 0.29. In data set [2], this molecule showed an AUC of 2830 ng·h/mL, a maximum concentration (Cmax) of 4890 ng/mL, a clearance of 5.85 mL/min/kg and a half-life of 0.77 h.
Take `CC(C)C(=O)OCOP(=O)(O)c1ccc2c(n1)CCNC2` [Example 19]: in data set [1] (setting [4]), the “IC50 ratio” value is recorded as 0.26.
Regarding `Cl.O=P(O)(O)c1ccc2c(n1)C(O)CNC2` (stereo not drawn) [Example 8, (8-hydroxy-5,6,7,8-tetrahydro-1,6-naphthyridin-2-yl) Phosphonic Acid Hydrochloride], the “IC50 ratio” value in data set [1] (setting [4]) was 0.2. For the same molecule, in data set [2], the AUC worked out at 6660 ng·h/mL, the Cmax stood at 5990 ng/mL, the clearance was 2.44 mL/min/kg and the half-life was 1.74 h.
Regarding `CC(C)CC1(CC(C)C)Cc2nc(P(=O)(O)O)ccc2CN1.Cl` [Example 31], the “IC50 ratio” value in data set [1] (setting [4]) is 0.1.
Same read-out and setting: then `Cl.O=P(O)(O)c1ccc2c(n1)CC(Cc1ccccc1)NC2` (stereo not drawn) [Example 30], with 0.75.
As for `O=P(O)(O)c1ccc2c(n1)CCNC2` [Example 6, (5,6,7,8-tetrahydro-1,6-naphthyridin-2-yl) Phosphonic Acid Monohydrate], the “IC50 ratio” value in data set [1] (setting [4]) is given as 0.09. Moreover, the “Compound concentration for doubling CLT” value in data set [3] worked out at 0.12 µM. The molecule also yielded a CLT doubling in data set [3] (clot lysis time at the doubling concentration) of 37.06 min.
In the case of `Cl.O=P(O)(O)c1ccc2c(n1)CC(CC1CCCCC1)NC2` (stereo not drawn) [Example 28], in data set [1] (setting [4]), the “IC50 ratio” value came out at 0.07.
For `Cl.O=P(O)(O)c1ccc2c(n1)C(F)(F)CNC2` [Example 5, (8,8-difluoro-5,6,7,8-tetrahydro-1,6-naphthyridin-2-yl) Phosphonic Acid Hydrochloride], the “IC50 ratio” value in data set [1] (setting [4]) is given as 1.3.
For `CC(C)(C)CCC1Cc2nc(P(=O)(O)O)ccc2CN1.Cl` (stereo not drawn) [Example 27], the “IC50 ratio” value in data set [1] (setting [4]) was determined as 0.1.
On the same count and under the same terms, then `CC(C)(C)CC1Cc2nc(P(=O)(O)O)ccc2CN1.Cl` (stereo not drawn) [Example 23], with 0.19; and `CCCC1Cc2nc(P(=O)(O)O)ccc2CN1.Cl` (stereo not drawn) [Example 12, (7-propyl-5,6,7,8-tetrahydro-1,6-naphthyridin-2-yl) Phosphonic Acid Hydrochloride], with 0.2; and `CC(C)CCC1Cc2nc(P(=O)(O)O)ccc2CN1.Cl` (stereo not drawn) [Example 26], with 0.09.
Same read-out and setting: the figure for `Cl.O=P(O)(O)c1ccc2c(n1)CC(CCc1ccccc1)NC2` (stereo not drawn) [Example 13, (7-phenylethyl-5,6,7,8-tetrahydro-1,6-naphthyridin-2-yl) Phosphonic Acid Hydrochloride] is 0.2.
